Series [1] addresses PARP-1 FL (Homo sapiens (Human), UniProt P09874). Briefly: Fluorescence polarization probe displacement assay, PARP-1. The format is binding. Particulars: for DC50: half maximal displacement concentration.
Experimental: (§1) Affinity evaluation of the tested compounds and their selectivity with respect to the different PARP isoforms of interest was assessed in a displacement assay.
(§2) The polarization signal can be measured, e.g., by a plate reader such as the Saphire2 (Tecan). The displacement ability of the test compound is in correlation with the compound affinity for the NAD pocket of the enzyme.
(§3) The assay performances were then evaluated (Z′ factor) as well as the displacement of the probe by its scaffold and known commercially available PARP inhibitors. In all of the experiments, the polarization signal was measured using a Saphire2 plate reader (Tecan). Data analysis was performed using Dynafit software. In particular, titration data were fitted to the following equilibria: Enzyme+probe <==> Complex Enzyme-probe, while displacement data were fitted to the following equilibria: Enzyme+probe <==> Complex Enzyme-probe, Enzyme+Compound <==> Complex Enzyme-Compound, whereby binding of probe and compound on the enzyme are mutually exclusive (pure competitive mechanism). Displacement data were also fitted using Excell spreadsheet (Microsoft Inc. Seattle, USA) to a four parameter logistic model (4PL), or Hill-Slope model to calculate DC50s where the DC50 value represents the compound concentration at which the polarization signal is diminished by 50% compared to untreated controls.
(§4) KD values, are the average of three independent experiments.
The target of series [2] is PARP-2 FL (Homo sapiens (Human), UniProt Q9UGN5). Briefly: Fluorescence polarization probe displacement assay, PARP-2. Format: binding.
Experimental: as §1, §2, §3, §4
Series [3] concerns the target PARP-3 FL (Homo sapiens (Human), UniProt Q9Y6F1). Briefly: Fluorescence polarization probe displacement assay, PARP-3. The note with it: half maximal displacement concentration. Format: binding. For orientation: Polarisation of emitted light reports the rotation of a fluorescent probe.
Experimental: as §1, §2, §3, §4
The nature of series [4]: Pharmacokinetics and oral bioavailability in the mouse. The note with it: for C-max (oral): 10 mg/kg single oral dose, mean value; for F on AUC / Vd / clearance / AUC / half-life: 10 mg/kg; for F on AUC: oral vs IV dose-normalized AUC; for Vd / clearance / AUC / half-life: male, Balb Nu/Nu, plasma; for Vd / clearance: iv; for AUC / half-life: po.
Experimental: The compounds were formulated in 10% tween 80/dextrose for intravenous bolus administration while oral administrations were performed using the compounds formulated in 0.5% methylcellulose. A single administration at the dose of 10 mg/kg was given and three male animals for each route were used. […] Plasma samples were prepared by plasma proteins precipitation adding 200 μL of methanol to 10 μL of plasma in a 96 well plate. […] The supernatant was considered as final extract and injected onto the LC-MS-MS system (HPLC system: Hewlett Packard 1100 series using Atlantis HILIC Silica 50*2.1 mm 5.0 μm analytical column; MS instrument: Perkin Elmer SCIEX API 2000 and ionization performed with Turbo Ion Spray in positive ion mode). Lower limit of quantification is 5.0 ng/mL, upper limit of quantification is 10000 ng/mL. […] Non-compartmental method (linear trapezoidal rule and linear regression analysis of natural log-transformed plasma concentrations vs. time data) was used. After intravenous dosing, C0 was set equal to C0.083 Absolute bioavailability (F) was calculated from the ratio of average oral to IV (intravenous) dose-normalized plasma AUC (area under curve) values.
Series [5] relates to PAR formation in HeLa cells. Briefly: Cellular PAR assay: inhibition of hydrogen peroxide induced PAR formation. The note with it: Homo sapiens, read-out: PAR assay IC50.
Experimental: Compounds potencies were evaluated by measuring the inhibition of poly (ADP-ribose) (PAR) chains formation as a marker for PARP-1 inhibition.
Cellular activity of PARP-1 inhibitors was assessed by measuring the inhibition of the hydrogen peroxide induced PAR formation in HeLa cells (ECACC). Cellular PAR levels were measured by immunocytochemistry, and quantified using an ArrayScan vTi instrument (Cellomics Thermo Scientific).
Test compounds were then added at the required concentration for 30′. […] Concentration curves were prepared in MEM/10% FCS from compound stocks in DMSO, and final DMSO concentration was 0.002% (v/v). Duplicate wells for each concentration point were prepared with a typical highest compound concentration of 20 μM and serial dilution 1:3. […] Non-specific binding sites were blocked by incubating wells for 30 min in PBS containing 5% (w/v) FBS 0.05% tween20. […] After washing further 3 times in PBS, cellular PAR immunoreactivity was assessed using the ArrayScan vTi instrument, with a Zeiss 10×0.5 N.A. objective, and applying the Cytotoxicity.V3 algorithm (Cellomics/Thermo Fisher) with a XF100 filter. At least 10 fields, corresponding to at least 900 cells, were read for each well.
The following formula is used: IC50=Bottom+(Top-Bottom)/(1+10^((LogEC50−X))); X is the logarithm of concentration. IC50 is the response; IC50 starts at Bottom and goes to Top with a sigmoid shape.
Series [6] relates to Capan-1 human pancreatic cancer tumors. Description: In vivo efficacy, single agent, Capan-1 BRCA-2 mutated mouse model.
Experimental: Fragments of Capan-1 human pancreatic cancer tumors were implanted subcutaneously. Mice bearing a palpable tumor (100-200 mm^3) were selected and randomized into control and treated groups. Each group included seven animals. The treatment started one day after randomization. Compound of formula (I) was administered by oral route as a methocel suspension at the indicated doses and times. Tumor dimension was measured regularly by calipers during the experiments and tumor mass was calculated as described in Simeoni M. et al., Cancer Res 64, 1094-1101 (2004).
Series [7] relates to ovarian cancer with confirmed BRCA-1 mutations. The note with it: ovarian cancer patients with confirmed BRCA-1 mutations, monotherapy; cited from earlier work.
[8] abbreviates: compound P3 as the probe, 100 nM PARP-1.
[9] abbreviates: half maximal displacement concentration; read-out: PARP-2 DC50.
Where [10] appears, read: read-out: PARP-2 DC50; half maximal displacement concentration.
The mark [11] stands for this setting: 100 mg/kg oral, days 1-14 daily.
[12] abbreviates: 100 mg/kg oral, days 1-6 twice a day.
The mark [13] stands for this setting: compound P1 as the probe, 250 nM PARP-1.
Setting [14] is: 100 mg/kg oral, days 1-15 daily.

Where two headings read alike, the source gives them in different places.

PARP-1 FL, sequence (P09874 whole entry): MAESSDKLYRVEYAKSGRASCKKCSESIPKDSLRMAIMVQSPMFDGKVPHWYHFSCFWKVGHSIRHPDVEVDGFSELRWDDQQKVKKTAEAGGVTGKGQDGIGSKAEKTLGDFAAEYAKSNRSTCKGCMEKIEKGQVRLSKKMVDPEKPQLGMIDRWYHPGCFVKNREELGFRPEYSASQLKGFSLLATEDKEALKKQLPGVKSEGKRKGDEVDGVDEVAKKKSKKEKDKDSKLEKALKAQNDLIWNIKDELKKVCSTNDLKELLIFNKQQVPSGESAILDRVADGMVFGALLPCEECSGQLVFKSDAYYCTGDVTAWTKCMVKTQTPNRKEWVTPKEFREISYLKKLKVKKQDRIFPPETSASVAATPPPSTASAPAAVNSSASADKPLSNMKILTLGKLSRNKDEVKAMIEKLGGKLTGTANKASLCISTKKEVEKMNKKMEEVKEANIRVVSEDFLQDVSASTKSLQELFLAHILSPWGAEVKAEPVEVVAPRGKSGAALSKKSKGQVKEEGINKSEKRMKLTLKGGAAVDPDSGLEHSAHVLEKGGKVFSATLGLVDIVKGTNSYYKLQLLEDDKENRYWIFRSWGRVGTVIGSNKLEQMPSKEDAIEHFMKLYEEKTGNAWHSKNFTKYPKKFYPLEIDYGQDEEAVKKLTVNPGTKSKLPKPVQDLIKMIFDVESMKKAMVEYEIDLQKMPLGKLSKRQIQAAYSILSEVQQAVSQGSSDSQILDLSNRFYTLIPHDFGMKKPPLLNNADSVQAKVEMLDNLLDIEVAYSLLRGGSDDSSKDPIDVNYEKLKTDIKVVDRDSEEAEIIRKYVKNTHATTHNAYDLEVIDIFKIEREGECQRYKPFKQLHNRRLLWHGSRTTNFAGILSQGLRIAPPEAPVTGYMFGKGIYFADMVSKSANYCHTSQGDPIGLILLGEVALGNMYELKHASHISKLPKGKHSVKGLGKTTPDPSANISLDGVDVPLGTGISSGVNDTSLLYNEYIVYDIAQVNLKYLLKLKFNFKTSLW
PARP-3 FL, sequence (Q9Y6F1 whole entry): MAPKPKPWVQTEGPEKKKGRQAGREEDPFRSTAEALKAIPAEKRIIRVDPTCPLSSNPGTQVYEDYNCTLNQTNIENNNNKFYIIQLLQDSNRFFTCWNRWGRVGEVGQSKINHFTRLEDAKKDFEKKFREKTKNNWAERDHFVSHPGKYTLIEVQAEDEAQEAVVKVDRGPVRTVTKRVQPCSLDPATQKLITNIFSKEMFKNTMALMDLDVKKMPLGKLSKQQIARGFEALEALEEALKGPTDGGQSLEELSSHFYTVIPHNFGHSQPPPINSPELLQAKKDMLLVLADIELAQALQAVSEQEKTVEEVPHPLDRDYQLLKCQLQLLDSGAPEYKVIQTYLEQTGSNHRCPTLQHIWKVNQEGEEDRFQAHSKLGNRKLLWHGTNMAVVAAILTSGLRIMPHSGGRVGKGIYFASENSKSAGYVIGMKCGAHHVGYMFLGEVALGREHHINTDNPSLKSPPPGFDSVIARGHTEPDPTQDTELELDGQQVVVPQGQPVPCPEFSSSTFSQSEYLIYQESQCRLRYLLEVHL
PARP-2 FL, sequence (Q9UGN5 whole entry): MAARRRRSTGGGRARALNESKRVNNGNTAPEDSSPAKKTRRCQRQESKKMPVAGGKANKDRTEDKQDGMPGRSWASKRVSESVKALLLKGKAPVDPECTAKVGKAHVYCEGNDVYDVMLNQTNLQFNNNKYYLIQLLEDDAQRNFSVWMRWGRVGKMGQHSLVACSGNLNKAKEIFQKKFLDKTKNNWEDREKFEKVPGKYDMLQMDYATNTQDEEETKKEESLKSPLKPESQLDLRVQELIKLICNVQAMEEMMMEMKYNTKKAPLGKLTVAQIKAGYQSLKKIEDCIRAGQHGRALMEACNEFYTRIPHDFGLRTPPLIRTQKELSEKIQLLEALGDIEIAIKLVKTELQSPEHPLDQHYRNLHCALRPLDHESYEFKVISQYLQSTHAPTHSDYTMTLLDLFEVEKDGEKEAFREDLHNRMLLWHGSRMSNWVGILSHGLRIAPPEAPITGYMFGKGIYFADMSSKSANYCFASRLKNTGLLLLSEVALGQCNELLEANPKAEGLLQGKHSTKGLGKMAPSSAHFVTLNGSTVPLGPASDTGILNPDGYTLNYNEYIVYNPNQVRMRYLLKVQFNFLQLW

For orientation: Kd means the free concentration of one partner at which half of the binding sites on the other are occupied at equilibrium, for simple one-to-one binding. High values mean a looser complex, low ones a tighter complex. What is called AUC is concentration integrated over time. Usually half-life stands for how long it takes for the measured level to halve. The term IC50 denotes the midpoint of a concentration-inhibition curve. `NC(=O)c1cccc2c1C(=O)N(C1CCN([C@H]3CC[C@H](CO)CC3)CC1)C2` [Compound 4, 2-{1-[Trans-4-(hydroxymethyl)cyclohexyl]piperidin-4-yl}-3-oxo-2,3-dihydro-1H-isoindole-4-carboxamide] registered a Kd in series [1] (setting [8]) of 20 nM. In series [1], this compound showed a DC50 of under 250 nM. Also, the DC50 in series [2] (setting [9]) was over 10000 nM. In series [3], this compound registered a DC50 of 4900 nM. In series [4], the “C-max (oral)” value came to 0.4 µM, the “F on AUC” value came to 55%, the Vd stood at 5.95 L/kg and the clearance worked out at 135 mL/min/kg. For the same compound, in series [4], the AUC worked out at 1.3 µM·h and the half-life is 1.42 h. Further, the IC50 in series [5] was 90 nM.
Compound `NC(=O)c1cccc2c1C(=O)N(C1CCN([C@H]3CC[C@@H](CO)CC3)CC1)C2` [Compound 3, 2-{1-[Cis-4-(hydroxymethyl)cyclohexyl]piperidin-4-yl}-3-oxo-2,3-dihydro-1H-isoindole-4-carboxamide] returned a Kd in series [1] (setting [8]) of 13 nM. In addition, the DC50 in series [1] was under 250 nM. In addition, in series [2] (setting [9]), the DC50 was over 10000 nM. This compound also yielded a DC50 in series [3] of 2300 nM. In addition, in series [4], the “C-max (oral)” value was 1.17 µM, the “F on AUC” value was 82.5%, the Vd is 4.75 L/kg and the clearance is 104 mL/min/kg. In series [4], the area under the curve (AUC) is 2.39 µM·h and the half-life is 1.75 h. Moreover, the IC50 in series [5] is 140 nM.
Consider `NC(=O)c1cc(F)cc2c1C(=O)N(C1CCN(C3CCC(=O)CC3)CC1)C2` [Compound 103, 6-Fluoro-3-oxo-2-[1-(4-oxocyclohexyl)piperidin-4-yl]-2,3-dihydro-1H-isoindole-4-carboxamide], for which, in series [1] (setting [8]), the Kd is under 10 nM. Besides, the DC50 is under 250 nM in series [1], 3770 nM in series [2] (setting [10]) and 4670 nM in series [3]. Also, the IC50 in series [5] was found to be 80 nM.
As to `NC(=O)c1cc(F)cc2c1C(=O)N(C1CCN(C3CCC(Cl)(Cl)CC3)CC1)C2` [Compound 105, 2-[1-(4,4-Dichlorocyclohexyl)piperidin-4-yl]-6-fluoro-3-oxo-2,3-dihydro-1H-isoindole-4-carboxamide], the DC50 in series [2] (setting [10]) was over 10000 nM; in series [3], 1080 nM.
With `NC(=O)c1cccc2c1C(=O)N(C1CCN(Cc3ccc4[nH]ccc4c3)CC1)C2` [Compound 29, 2-[1-(1H-indol-5-ylmethyl)piperidin-4-yl]-3-oxo-2,3-dihydro-1H-isoindole-4-carboxamide], in series [6] (setting [11]), the “Max TGI (%)” value came to 38% and the “Toxicity (body weight reduction, mice out of 7)” value is 0/7.
As for `NC(=O)c1ccc(F)c2c1C(=O)N(C1CCN(C3CCC(F)(F)CC3)CC1)C2` [Compound 101, 2-[1-(4,4-Difluorocyclohexyl)-piperidin-4-yl]-7-fluoro-3-oxo-2,3-dihydro-1H-isoindole-4-carboxamide], the DC50 in series [2] (setting [10]) and in series [3] was over 10000 nM each time.
The compound `CO[C@H]1CC[C@H](N2CCC(N3Cc4cccc(C(N)=O)c4C3=O)CC2)CC1` [Compound 2, 2-[1-(Trans-4-methoxycyclohexyl)piperidin-4-yl]-3-oxo-2,3-dihydro-1H-isoindole-4-carboxamide] gave a Kd in series [1] (setting [8]) of 25 nM. For the same compound, the DC50 is under 250 nM in series [1], over 10000 nM in series [2] (setting [10]) and 6000 nM in series [3]. Besides, the IC50 in series [5] was found to be 160 nM.
In series [1] (setting [8]), `CC(C)n1cc(CN2CCC(N3Cc4cccc(C(N)=O)c4C3=O)CC2)c2ccccc21` [Compound 32, 3-oxo-2-(1-{[1-(propan-2-yl)-1H-indol-3-yl]methyl}piperidin-4-yl)-2,3-dihydro-1H-isoindole-4-carboxamide] gave a Kd of 40 nM. Moreover, the DC50 in series [1] was under 250 nM. Moreover, in series [2] (setting [9]), the DC50 is over 10000 nM. The DC50 in series [3] worked out at 270 nM. Besides, in series [6] (setting [12]), the “Max TGI (%)” value was 32% and the “Toxicity (body weight reduction, mice out of 7)” value was 0/7. For the same compound, in series [4], the “C-max (oral)” value was found to be 0.43 µM, the “F on AUC” value is on record as 24%, the Vd was determined as 2.78 L/kg and the clearance stood at 59.5 mL/min/kg. Besides, in series [4], the AUC came to 1.48 µM·h and the half-life is 1.84 h. Also, the IC50 in series [5] was 380 nM.
In the case of `NC(=O)c1cc(Cl)cc2c1C(=O)N(C1CCN(C3CCC(F)(F)CC3)CC1)C2` [Compound 100, 2-[1-(4,4-Difluorocyclohexyl)-piperidin-4-yl]-6-chloro-3-oxo-2,3-dihydro-1H-isoindole-4-carboxamide], the DC50 in series [2] (setting [10]) is over 10000 nM; in series [3] it was 790 nM.
With `NC(=O)c1cccc2c1C(=O)N(C1CCN(C3CCC4(CC3)OCCO4)CC1)C2` [Compound 8, 2-[1-(1,4-Dioxaspiro[4.5]dec-8-yl)piperidin-4-yl]-3-oxo-2,3-dihydro-1H-isoindole-4-carboxamide], the Kd in series [1] (setting [13]) was 130 nM. Moreover, the DC50 in series [1] was 280 nM; in series [2] (setting [10]), over 10000 nM; in series [3], over 10000 nM. Moreover, the IC50 in series [5] came out at 530 nM.
In turn, `NC(=O)c1cccc2c1C(=O)N(C1CCN(C3CCC(F)(F)CC3)CC1)C2` [Compound 7, 2-[1-(4,4-Difluorocyclohexyl)-piperidin-4-yl]-3-oxo-2,3-dihydro-1H-isoindole-4-carboxylic acid amide] had a DC50 in series [3] of 3540 nM. In addition, in series [6] (80 mg/kg oral, days 1-8 daily), the “Max TGI (%)” value is on record as 47% and the “Toxicity (body weight reduction, mice out of 7)” value is given as 0/7.
`COCCN1CCC(N2Cc3cccc(C(N)=O)c3C2=O)CC1` [Compound 106, 2-[1-(2-Methoxyethyl)piperidin-4-yl]-3-oxo-2,3-dihydro-1H-isoindole-4-carboxamide] had a Kd in series [1] (setting [13]) of 110 nM. For the same compound, the DC50 in series [1] is 280 nM; in series [2] (setting [10]) it was over 10000 nM; in series [3], 2550 nM. The IC50 in series [5] was 410 nM.
For `CO[C@H]1CC[C@@H](N2CCC(N3Cc4cccc(C(N)=O)c4C3=O)CC2)CC1` [Compound 1, 2-[1-(Cis-4-methoxycyclohexyl)piperidin-4-yl]-3-oxo-2,3-dihydro-1H-isoindole-4-carboxamide], the affinity in series [1] (setting [8]), expressed as Kd, was 60 nM. In addition, the DC50 in series [1] was under 250 nM; in series [2] (setting [10]), over 10000 nM; in series [3], 3700 nM. Moreover, the IC50 in series [5] is 390 nM.
Regarding `NC(=O)c1cc(F)cc2c1C(=O)N(C1CCN(C3CCC(F)(F)CC3)CC1)C2` [Compound 99, 2-[1-(4,4-Difluorocyclohexyl)-piperidin-4-yl]-6-fluoro-3-oxo-2,3-dihydro-1H-isoindole-4-carboxamide], the DC50 in series [3] worked out at 1580 nM. For the same compound, in series [6] (setting [14]), the “Max TGI (%)” value was 55% and the “Toxicity (body weight reduction, mice out of 7)” value was 0/7. Besides, in series [4], the AUC came out at 19.6 µM·h.
On to `O=C(c1cc(Cc2n[nH]c(=O)c3ccccc23)ccc1F)N1CCN(C(=O)C2CC2)CC1` [AZD2281], for which the partial responses in series [7] is 4 out of 10.

The values are drawn from patent publication US8877944B2, “3-oxo-2,3-dihydro-1H-isoindole-4-carboxamides as PARP inhibitors” (Nerviano Medical Sciences S.R.L., priority 2009, dated 2014).
